Results published in patent publication US5698411A, “Method for determining activity of enzymes in metabolically active whole cells” (priority 1995, dated 1997).
“And” between values parts separate entries of the source, which are not always exact repeats. Identical values can stand only once.

Tests used:
Type in all cases: cell-based, human
[1] = tested on: metabolically active whole cell; assay: substrate panel in normals and HIV + patients, TB infection (Table 4); design: unit not given here
Procedure: A panel of assay compounds are assembled consisting of Ala-aminopeptidase and Lys-aminopeptidase, Dipeptidyl peptidase IV (Ala-Ala)2 rhodamine 110 and Cathepsin D to indicate possible TB infection in AIDS related cases.
A panel Of enzymatic substrates is performed consisting of Ala-aminopeptidase and Lys-aminopeptidase, Dipeptidyl peptidase IV (Ala-Ala)2 rhodamine 110 and Cathepsin D to indicate possible TB infection in AIDS related cases.

[2] = tested on: granulocytes; assay: aberrant enzyme activities in febrile children, granulocytes (Table 7)
[3] = tested on: lymphocytes; assay: peptidase activity in leukemia and non-leukemia patients, lymphocytes (Table 6C); design: unit not given here
Excerpt: (§1) Artificial intelligence was used to analyze data of cellular enzyme functions, and determine normal and disease states. Peptidases were used to distinguish leukemia from non-leukemia (output pattern). For input patterns lymphocyte and granulocyte cell types were used with aminopeptidases, cathepsins and dipeptidylpeptidase enzyme activities. In this Example, illustrated in Tables 6A-6C, three normals and three leukemia patients were used as known output patterns for the neural network to learn (in practice, the larger the learning set the more accurate unknown prediction will be). Unknowns were then presented to the learned algorithm as shown in the test case examples. Clinical diagnosis was confirmed by physicians. The trained neural network was able to correctly classify the leukemia from the non-leukemia.

[4] = tested on: lymphocytes; assay: aberrant enzyme activities in febrile children, lymphocytes (Table 7)
[5] = tested on: granulocytes; assay: peptidase activity in leukemia and non-leukemia patients, granulocytes (Table 6C); design: unit not given here
Excerpt: as §1

[6] = tested on: monocytes; assay: aberrant enzyme activities in febrile children, monocytes (Table 7)

## CC(C)[C@H](N)C(=O)N[C@@H](CO)C(=O)Nc1ccc2c(c1)Oc1cc(NC(=O)[C@H](CO)NC(=O)[C@@H](N)C(C)C)ccc1C21OC(=O)c2ccccc21 [VS, (H-L-Val--Ser)2 Rho 110 .2TFA]
[1]; HIV + PATIENTS
  MEAN DELTA FL: 32.5
[1]; NORMALS
  MEAN DELTA FL: 24.6
[2]; P96 Viral Syndrome
  aberrant enzyme activity, GRANS: .smallcircle.
[2]; P97 Pyelonephritis
  aberrant enzyme activity, GRANS: .smallcircle.
[2]; P103 Viral Syndrome
  aberrant enzyme activity, GRANS: .smallcircle.
[3]; J4 11/21/91 acute leuk.
  enzyme activity, Lymphs: 0.05
[3]; J4 12/2/91 A L
  enzyme activity, Lymphs: 0.03
[3]; J4 12/3/91 acute leuk.
  enzyme activity, Lymphs: 0.04
[3]; J5 11/27/91 A M L
  enzyme activity, Lymphs: 0.05
[3]; J19 11/27/91 C L L
  enzyme activity, Lymphs: 0.01
[3]; J22 12/2/91 A M L
  enzyme activity, Lymphs: 0.01
[3]; J22 12/9/91 A M L
  enzyme activity, Lymphs: 0.04
[3]; N191 normal
  enzyme activity, Lymphs: 0.14
[3]; N192 normal
  enzyme activity, Lymphs: 0.08
[3]; N193 normal
  enzyme activity, Lymphs: 0.09
[3]; N194 normal
  enzyme activity, Lymphs: 0.07
[3]; N195 normal
  enzyme activity, Lymphs: 0.06
[3]; N197 normal
  enzyme activity, Lymphs: 0.11
[3]; N199 normal
  enzyme activity, Lymphs: 0.03
[3]; N200 normal
  enzyme activity, Lymphs: 0.06
[3]; N201 normal
  enzyme activity, Lymphs: 0.07
[3]; N202 normal
  enzyme activity, Lymphs: 0.04
[3]; N206 normal
  enzyme activity, Lymphs: 0.28
[3]; P68 tachycardia
  enzyme activity, Lymphs: 0.05
[3]; P69 pancreatic CA
  enzyme activity, Lymphs: 0.18
[3]; P70 cirrhosis/hemobilia
  enzyme activity, Lymphs: 0.04
[3]; P71 ac. pyelonephritis
  enzyme activity, Lymphs: 0.08
[4]; P95 Viral Syndrome
  aberrant enzyme activity, LYMPHS: .smallcircle.
[4]; P96 Viral Syndrome
  aberrant enzyme activity, LYMPHS: .smallcircle.
[4]; P97 Pyelonephritis
  aberrant enzyme activity, LYMPHS: .smallcircle.
[4]; P103 Viral Syndrome
  aberrant enzyme activity, LYMPHS: .smallcircle.
[5]; J4 11/21/91 acute leuk.
  enzyme activity, Grans: 0.37
[5]; J4 12/2/91 A L
  enzyme activity, Grans: 0.14
[5]; J4 12/3/91 acute leuk.
  enzyme activity, Grans: 0.23
[5]; J22 12/2/91 A M L
  enzyme activity, Grans: 0.22
[5]; J22 12/9/91 A M L
  enzyme activity, Grans: 0.32
[5]; N191 normal
  enzyme activity, Grans: 0.64
[5]; N192 normal
  enzyme activity, Grans: 0.40
[5]; N193 normal
  enzyme activity, Grans: 0.44
[5]; N194 normal
  enzyme activity, Grans: 0.29
[5]; N195 normal
  enzyme activity, Grans: 0.37
[5]; N197 normal
  enzyme activity, Grans: 0.58
[5]; N199 normal
  enzyme activity, Grans: 0.14
[5]; N200 normal
  enzyme activity, Grans: 0.24
[5]; N201 normal
  enzyme activity, Grans: 0.32
[5]; N202 normal
  enzyme activity, Grans: 0.24
[5]; P68 tachycardia
  enzyme activity, Grans: 0.33
[5]; P69 pancreatic CA
  enzyme activity, Grans: 0.57
[5]; P70 cirrhosis/hemobilia
  enzyme activity, Grans: 0.26
[5]; P71 ac. pyelonephritis
  enzyme activity, Grans: 0.69
[6]; P96 Viral Syndrome
  aberrant enzyme activity, MONOS: .smallcircle.
[6]; P103 Viral Syndrome
  aberrant enzyme activity, MONOS: .smallcircle.

## CC(C)C[C@H](N)C(=O)NCC(=O)Nc1ccc2c(c1)Oc1cc(NC(=O)CNC(=O)[C@@H](N)CC(C)C)ccc1C21OC(=O)c2ccccc21 [LG]
[2]; P92 Adenitis
  aberrant enzyme activity, GRANS: .smallcircle.
[2]; P96 Viral Syndrome
  aberrant enzyme activity, GRANS: .smallcircle.
[2]; P97 Pyelonephritis
  aberrant enzyme activity, GRANS: .smallcircle.
[2]; P101 Fever -- Unknown Origin
  aberrant enzyme activity, GRANS: .smallcircle.
[2]; P102 UTI
  aberrant enzyme activity, GRANS: .smallcircle.
[3]; J4 11/21/91 acute leuk.
  enzyme activity, Lymphs: 0.16
[3]; J4 12/2/91 A L
  enzyme activity, Lymphs: 0.18
[3]; J4 12/3/91 acute leuk.
  enzyme activity, Lymphs: 0.19
[3]; J5 11/27/91 A M L
  enzyme activity, Lymphs: 0.23
[3]; J19 11/27/91 C L L
  enzyme activity, Lymphs: 0.02
[3]; J22 12/2/91 A M L
  enzyme activity, Lymphs: 0.02
[3]; J22 12/9/91 A M L
  enzyme activity, Lymphs: 0.61
[3]; N199 normal
  enzyme activity, Lymphs: 0.85
[3]; P68 tachycardia
  enzyme activity, Lymphs: 0.78
[3]; P69 pancreatic CA
  enzyme activity, Lymphs: 2.00
[3]; P70 cirrhosis/hemobilia
  enzyme activity, Lymphs: 0.79
[3]; P71 ac. pyelonephritis
  enzyme activity, Lymphs: 0.68
[4]; P92 Adenitis
  aberrant enzyme activity, LYMPHS: .smallcircle.
[4]; P97 Pyelonephritis
  aberrant enzyme activity, LYMPHS: .smallcircle.
[4]; P102 UTI
  aberrant enzyme activity, LYMPHS: .smallcircle.
[4]; P103 Viral Syndrome
  aberrant enzyme activity, LYMPHS: .smallcircle.
[5]; J4 11/21/91 acute leuk.
  enzyme activity, Grans: 0.85
[5]; J4 12/2/91 A L
  enzyme activity, Grans: 0.79
[5]; N200 normal
  enzyme activity, Grans: 3.40
[5]; N202 normal
  enzyme activity, Grans: 2.70
[5]; P70 cirrhosis/hemobilia
  enzyme activity, Grans: 2.20
[5]; P71 ac. pyelonephritis
  enzyme activity, Grans: 4.00
[6]; P92 Adenitis
  aberrant enzyme activity, MONOS: .smallcircle.
[6]; P96 Viral Syndrome
  aberrant enzyme activity, MONOS: .smallcircle.
[6]; P97 Pyelonephritis
  aberrant enzyme activity, MONOS: .smallcircle.
[6]; P101 Fever -- Unknown Origin
  aberrant enzyme activity, MONOS: .smallcircle.
[6]; P103 Viral Syndrome
  aberrant enzyme activity, MONOS: .smallcircle.

## NC(=O)CC[C@H](N)C(=O)N[C@@H](CO)C(=O)Nc1ccc2c(c1)Oc1cc(NC(=O)[C@H](CO)NC(=O)[C@@H](N)CCC(N)=O)ccc1C21OC(=O)c2ccccc21 [QS, (H-L-Gln--Ser)2 Rho 110 .2TFA]
[2]; P97 Pyelonephritis
  aberrant enzyme activity, GRANS: .smallcircle.
[3]; J4 11/21/91 acute leuk.
  enzyme activity, Lymphs: 0.05
[3]; J4 12/2/91 A L
  enzyme activity, Lymphs: 0.01
[3]; J4 12/3/91 acute leuk.
  enzyme activity, Lymphs: 0.06
[3]; J5 11/27/91 A M L
  enzyme activity, Lymphs: 0.07
[3]; J19 11/27/91 C L L
  enzyme activity, Lymphs: 0.06
[3]; J22 12/2/91 A M L
  enzyme activity, Lymphs: 0.02
[3]; J22 12/9/91 A M L
  enzyme activity, Lymphs: 0.02
[3]; N191 normal
  enzyme activity, Lymphs: 0.02
[3]; N192 normal
  enzyme activity, Lymphs: 0.03
[3]; N193 normal
  enzyme activity, Lymphs: 0.03
[3]; N194 normal
  enzyme activity, Lymphs: 0.02
[3]; N195 normal
  enzyme activity, Lymphs: 0.04
[3]; N197 normal
  enzyme activity, Lymphs: 0.06
[3]; N199 normal
  enzyme activity, Lymphs: 0.02
[3]; N200 normal
  enzyme activity, Lymphs: 0.01
[3]; N201 normal
  enzyme activity, Lymphs: 0.02
[3]; N202 normal
  enzyme activity, Lymphs: 0.01
[3]; N206 normal
  enzyme activity, Lymphs: 0.04
[3]; P68 tachycardia
  enzyme activity, Lymphs: 0.02
[3]; P69 pancreatic CA
  enzyme activity, Lymphs: 0.31
[3]; P70 cirrhosis/hemobilia
  enzyme activity, Lymphs: 0.04
[3]; P71 ac. pyelonephritis
  enzyme activity, Lymphs: 0.05
[4]; P92 Adenitis
  aberrant enzyme activity, LYMPHS: .smallcircle.
[4]; P97 Pyelonephritis
  aberrant enzyme activity, LYMPHS: .smallcircle.
[4]; P103 Viral Syndrome
  aberrant enzyme activity, LYMPHS: .smallcircle.
[5]; J4 11/21/91 acute leuk.
  enzyme activity, Grans: 0.22
[5]; J4 12/2/91 A L
  enzyme activity, Grans: 0.44
[5]; J4 12/3/91 acute leuk.
  enzyme activity, Grans: 0.19
[5]; J22 12/2/91 A M L
  enzyme activity, Grans: 0.10
[5]; J22 12/9/91 A M L
  enzyme activity, Grans: 0.24
[5]; N191 normal
  enzyme activity, Grans: 0.19
[5]; N192 normal
  enzyme activity, Grans: 0.15
[5]; N193 normal
  enzyme activity, Grans: 0.14
[5]; N194 normal
  enzyme activity, Grans: 0.07
[5]; N195 normal
  enzyme activity, Grans: 0.21
[5]; N197 normal
  enzyme activity, Grans: 0.24
[5]; N199 normal
  enzyme activity, Grans: 0.05
[5]; N200 normal
  enzyme activity, Grans: 0.06
[5]; N201 normal
  enzyme activity, Grans: 0.09
[5]; N202 normal
  enzyme activity, Grans: 0.08
[5]; N206 normal
  enzyme activity, Grans: 0.27
[5]; P68 tachycardia
  enzyme activity, Grans: 0.33
[5]; P69 pancreatic CA
  enzyme activity, Grans: 0.37
[5]; P70 cirrhosis/hemobilia
  enzyme activity, Grans: 0.19
[5]; P71 ac. pyelonephritis
  enzyme activity, Grans: 0.51
[6]; P92 Adenitis
  aberrant enzyme activity, MONOS: .smallcircle.
[6]; P97 Pyelonephritis
  aberrant enzyme activity, MONOS: .smallcircle.

## C[C@@H](O)[C@H](N)C(=O)N1CCC[C@H]1C(=O)Nc1ccc2c(c1)Oc1cc(NC(=O)[C@@H]3CCCN3C(=O)[C@@H](N)[C@@H](C)O)ccc1C21OC(=O)c2ccccc21 [THR--PRO*]
[1]; HIV + PATIENTS
  MEAN DELTA FL: 10.2
[1]; NORMALS
  MEAN DELTA FL: 17.3

## NCC(=O)N1CCC[C@H]1C(=O)Nc1ccc2c(c1)Oc1cc(NC(=O)[C@@H]3CCCN3C(=O)CN)ccc1C21OC(=O)c2ccccc21 [GLY--PRO*]
[1]; HIV + PATIENTS
  MEAN DELTA FL: 21.4
[1]; HIV + PATIENTS, listed as GLY--PRO****
  MEAN DELTA FL: 18.4
[1]; NORMALS
  MEAN DELTA FL: 50.9
[1]; NORMALS, listed as GLY--PRO****
  MEAN DELTA FL: 46.7

## NC(=O)CC[C@H](N)C(=O)N[C@@H](CO)C(=O)Nc1ccc2c(c1)Oc1cc(NC(=O)[C@H](CO)NC(=O)[C@@H](N)CCC(N)=O)ccc1C21OC(=O)c2ccccc21 (relative stereo) [GLN--SER*]
[1]; HIV + PATIENTS
  MEAN DELTA FL: 13.7 and 12.7
[1]; NORMALS
  MEAN DELTA FL: 11.9 and 6.1

## C[C@H](N)C(=O)NCC(=O)Nc1ccc2c(c1)Oc1cc(NC(=O)CNC(=O)[C@H](C)N)ccc1C21OC(=O)c2ccccc21 [ALA--GLY****]
[1]; HIV + PATIENTS
  MEAN DELTA FL: 39.9 and 29.7
[1]; NORMALS
  MEAN DELTA FL: 48.0 and 31.6

## CC(C)C[C@H](NC(=O)CN)C(=O)Nc1ccc2c(c1)Oc1cc(NC(=O)[C@H](CC(C)C)NC(=O)CN)ccc1C21OC(=O)c2ccccc21 [GL, (H Gly--Leu)2 Rho 110 .2FTA]
[1]; HIV + PATIENTS
  MEAN DELTA FL: 16.3
[1]; NORMALS
  MEAN DELTA FL: 9.5
[2]; P92 Adenitis
  aberrant enzyme activity, GRANS: .smallcircle.
[2]; P103 Viral Syndrome
  aberrant enzyme activity, GRANS: .smallcircle.
[4]; P92 Adenitis
  aberrant enzyme activity, LYMPHS: .smallcircle.
[4]; P97 Pyelonephritis
  aberrant enzyme activity, LYMPHS: .smallcircle.
[4]; P103 Viral Syndrome
  aberrant enzyme activity, LYMPHS: .smallcircle.
[6]; P92 Adenitis
  aberrant enzyme activity, MONOS: .smallcircle.
[6]; P97 Pyelonephritis
  aberrant enzyme activity, MONOS: .smallcircle.
[6]; P103 Viral Syndrome
  aberrant enzyme activity, MONOS: .smallcircle.
